Experimental data as given in patent publication US12077503B2, “Substituted cyclic amides and their use as herbicides” (FMC CORPORATION, priority 2015, dated 2024).

How the values were obtained:
Format in all cases: in vivo
[1] = test system: speedwell (bird's-eye speedwell, Veronica persica); test: Test D preemergence; conditions: scale 0 to 100
Method in brief: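 Test chemicals, formulated in a non-phytotoxic solvent blend including surfactant, are applied preemergence to seeded silt loam soil. Response is judged visually against controls after approximately 21 d in a controlled environment, on a scale where 0 is no effect and 100 is complete control.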

[2] = test system: barnyardgrass (Echinochloa crus-galli); test: Test G Post-Emergence Protocol; conditions: Echinochloa crus-galli, post-emergence, 312 h; for pest or weed control at 15.625 g/ha: 15.625 g ai/ha, evaluated after 13 days (100=total damage to plant; 0=no damage to plant), read-out: Barnyardgrass damage rating; for pest or weed control at 62.5 g/ha: 62.5 g ai/ha, read-out: Barnyardgrass damage rating (100=total damage to plant; 0=no damage to plant); for pest or weed control at 62.5 g/ha / pest or weed control at 250 g/ha: evaluated after 13 days; for pest or weed control at 250 g/ha: 250 g ai/ha, read-out: damage to plant, Barnyardgrass (100=total damage to plant; 0=no damage to plant)
Description: (§1) Seeds of corn (Zea mays), giant foxtail (Setaria faberi), barnyardgrass (Echinochloa crus-galli), ivy-leaved morning glory (Ipomoea hederacea), redroot pigweed (Amaranthus retroflexus) and velvetleaf (Abutilon theophrasti) were sown in standard soil in pots. After cultivation for 8 days under controlled conditions in a glasshouse (at 24/16° C., day/night; 14 hours light; 65% humidity), the plants were sprayed with an aqueous spray solution derived from the formulation of the technical active ingredient in acetone/water (50:50) solution containing 0.5% Tween 20 (polyoxyethylene sorbitan monolaurate, CAS RN 9005-64-5) to give a final dose of 15.625, 62.5 or 250 g/ha of test compound.
(§2) The test plants were then grown on under controlled conditions in a glasshouse (at 24/16° C., day/night; 14 hours light; 65% humidity) and watered twice daily. After 13 days the test was evaluated (100=total damage to plant; 0=no damage to plant). A dash (-) means no test result.

[3] = test system: corn (Zea mays); test: Test G Post-Emergence Protocol; conditions: Zea mays, post-emergence, 312 h; for plant injury at 15.625 g/ha: 15.625 g ai/ha, evaluated after 13 days (100=total damage to plant; 0=no damage to plant), read-out: Corn damage rating; for plant injury at 62.5 g/ha: 62.5 g ai/ha, read-out: Corn damage rating (100=total damage to plant; 0=no damage to plant); for plant injury at 62.5 g/ha / plant injury at 250 g/ha: evaluated after 13 days; for plant injury at 250 g/ha: 250 g ai/ha, read-out: damage to plant, Corn (100=total damage to plant; 0=no damage to plant)
Description: as §1, §2

[4] = test system: giant foxtail (Setaria faberi); test: Test G Post-Emergence Protocol; conditions: Setaria faberi, post-emergence, 312 h; for pest or weed control at 15.625 g/ha: 15.625 g ai/ha, evaluated after 13 days (100=total damage to plant; 0=no damage to plant), read-out: Foxtail, Giant damage rating; for pest or weed control at 62.5 g/ha: 62.5 g ai/ha, read-out: Foxtail, Giant damage rating (100=total damage to plant; 0=no damage to plant); for pest or weed control at 62.5 g/ha / pest or weed control at 250 g/ha: evaluated after 13 days; for pest or weed control at 250 g/ha: 250 g ai/ha, read-out: damage to plant, Foxtail, Giant (100=total damage to plant; 0=no damage to plant)
Description: as §1, §2

[5] = test system: ivy-leaved morning glory (Ipomoea hederacea); test: Test G Post-Emergence Protocol; conditions: Ipomoea, post-emergence, 312 h; for pest or weed control at 15.625 g/ha: 15.625 g ai/ha, evaluated after 13 days (100=total damage to plant; 0=no damage to plant), read-out: Morningglory, Ivy-leaved damage rating; for pest or weed control at 62.5 g/ha: 62.5 g ai/ha, read-out: Morningglory, Ivy-leaved damage rating (100=total damage to plant; 0=no damage to plant); for pest or weed control at 62.5 g/ha / pest or weed control at 250 g/ha: evaluated after 13 days; for pest or weed control at 250 g/ha: 250 g ai/ha, read-out: damage to plant, Morningglory, Ivy-leaved (100=total damage to plant; 0=no damage to plant)
Description: as §1, §2

[6] = test system: redroot pigweed (Amaranthus retroflexus); test: Test G Post-Emergence Protocol; conditions: Amaranthus retroflexus, post-emergence, 312 h; for pest or weed control at 15.625 g/ha: 15.625 g ai/ha, evaluated after 13 days (100=total damage to plant; 0=no damage to plant), read-out: Pigweed, Redroot damage rating; for pest or weed control at 62.5 g/ha: 62.5 g ai/ha, read-out: Pigweed, Redroot damage rating (100=total damage to plant; 0=no damage to plant); for pest or weed control at 62.5 g/ha / pest or weed control at 250 g/ha: evaluated after 13 days; for pest or weed control at 250 g/ha: 250 g ai/ha, read-out: damage to plant, Pigweed, Redroot (100=total damage to plant; 0=no damage to plant)
Description: as §1, §2

[7] = test system: velvetleaf (Abutilon theophrasti); test: Test G Post-Emergence Protocol; conditions: Abutilon theophrasti, post-emergence, 312 h; for pest or weed control at 15.625 g/ha: 15.625 g ai/ha, evaluated after 13 days (100=total damage to plant; 0=no damage to plant), read-out: Velvetleaf damage rating; for pest or weed control at 62.5 g/ha: 62.5 g ai/ha, read-out: Velvetleaf damage rating (100=total damage to plant; 0=no damage to plant); for pest or weed control at 62.5 g/ha / pest or weed control at 250 g/ha: evaluated after 13 days; for pest or weed control at 250 g/ha: 250 g ai/ha, read-out: damage to plant, Velvetleaf (100=total damage to plant; 0=no damage to plant)
Description: as §1, §2

| Structure (SMILES) | Plant response rating: Speedwell ([1]; 31 g ai/ha) | Plant response rating: Speedwell ([1]; 62 g ai/ha) | Plant response rating: Speedwell ([1]; 125 g ai/ha) | Plant response rating: Speedwell ([1]; 250 g ai/ha) | pest or weed control at 15.625 g/ha [2] [%] | pest or weed control at 62.5 g/ha [2] [%] | pest or weed control at 250 g/ha [2] [%] | plant injury at 15.625 g/ha [3] [%] | plant injury at 62.5 g/ha [3] [%] | plant injury at 250 g/ha [3] [%] | pest or weed control at 15.625 g/ha [4] [%] | pest or weed control at 62.5 g/ha [4] [%] | pest or weed control at 250 g/ha [4] [%] | pest or weed control at 15.625 g/ha [5] [%] | pest or weed control at 62.5 g/ha [5] [%] | pest or weed control at 250 g/ha [5] [%] | pest or weed control at 15.625 g/ha [6] [%] | pest or weed control at 62.5 g/ha [6] [%] | pest or weed control at 250 g/ha [6] [%] | pest or weed control at 15.625 g/ha [7] [%] | further results |
| --- | --- | --- | --- | --- | --- | --- | --- | --- | --- | --- | --- | --- | --- | --- | --- | --- | --- | --- | --- | --- | --- |
| CN1CC(c2ccc(C(F)(F)F)cc2)C(C(=O)Nc2ccccc2S(C)(=O)=O)C1=O (centres unmarked) [Compound 624] | 90 | 90 | 100 | 100 |  |  |  |  |  |  |  |  |  |  |  |  |  |  |  |  |  |
| CN1CC(c2cccc(C(F)(F)F)c2)C(C(=O)Nc2ccccc2S(C)(=O)=O)C1=O (centres unmarked) [Compound 637] | 15 | 60 | 100 | 100 |  |  |  |  |  |  |  |  |  |  |  |  |  |  |  |  |  |
| Cc1ccc([C@H]2CN(C)C(=O)[C@@H]2C(=O)Nc2cccnc2F)cc1 [Compound 1398] |  |  |  |  | 80 | 80 | 80 | 30 | 70 | 80 | 80 | 80 | 80 | 0 | 40 | 60 | 0 | 50 | 60 | 0 | pest or weed control at 62.5 g/ha [7]: 40%; pest or weed control at 250 g/ha [7]: 40% |
| Cc1ccc([C@H]2CN(C)C(=O)[C@@H]2C(=O)Nc2ccc(F)nc2F)cc1 [Compound 1402] |  |  |  |  | 80 | 80 | 80 | 70 | 80 | 80 | 80 | 80 | 80 | 10 | 40 | 60 | 10 | 60 | 60 | 0 | pest or weed control at 62.5 g/ha [7]: 30%; pest or weed control at 250 g/ha [7]: 50% |
